Activity calls are given as the source filed them. No cut-off for these calls is given here.
What was measured:
[1] = target: RAC-alpha serine/threonine-protein kinase (Homo sapiens) (UniProt P31749); assay: Inhibition of AKT1 (unknown origin) assessed as remaining activity at 1 uM by Kinome scan method relative to control
[2] = target: Bone morphogenetic protein receptor type-2 (Homo sapiens) (UniProt Q13873); assay: Inhibition of BMPR2 (unknown origin) assessed as remaining activity at 1 uM by Kinome scan method relative to control
[3] = target: Calcium/calmodulin-dependent protein kinase kinase 1 (Homo sapiens) (UniProt Q8N5S9); assay: Inhibition of CAMKK1 (unknown origin) assessed as remaining activity at 1 uM by Kinome scan method relative to control
[4] = target: Mitogen-activated protein kinase 1 (Homo sapiens) (UniProt P28482); assay: Inhibition of ERK2 (unknown origin) assessed as remaining activity at 1 uM by Kinome scan method relative to control
[5] = target: Mitogen-activated protein kinase kinase kinase 1 (Homo sapiens) (UniProt Q13233); assay: Inhibition of MAP3K1 (unknown origin) assessed as remaining activity at 1 uM by Kinome scan method relative to control
[6] = target: Mitogen-activated protein kinase kinase kinase 3 (Homo sapiens) (UniProt Q99759); assay: Inhibition of MAP3K3 (unknown origin) assessed as remaining activity at 1 uM by Kinome scan method relative to control
[7] = target: Serine/threonine-protein kinase SBK1 (Homo sapiens) (UniProt Q52WX2); assay: Inhibition of SBK1 (unknown origin) assessed as remaining activity at 1 uM by Kinome scan method relative to control
[8] = target: Tyrosine-protein kinase Yes (Homo sapiens) (UniProt P07947); assay: Inhibition of YES (unknown origin) assessed as remaining activity at 1 uM by Kinome scan method relative to control
[9] = target: Calcium/calmodulin-dependent protein kinase kinase 1 (Homo sapiens) (UniProt Q8N5S9); assay: Inhibition of human CAMKK1 assessed as residual activity at 1 uM using RB-CTF as substrate in presence of 33P-ATP by ProQinase assay relative to control
[10] = target: CDK9/Cyclin K (Homo sapiens) (UniProt P50750+O75909); assay: Inhibition of human CDK9/CycK assessed as residual activity at 1 uM using RBER-CHKtide as substrate in presence of 33P-ATP by ProQinase assay relative to control; format: protein-complex assay
[11] = target: Dual specificity tyrosine-phosphorylation-regulated kinase 4 (Homo sapiens) (UniProt Q9NR20); assay: Inhibition of human DYRK4 assessed as residual activity at 1 uM using RBER-CHKtide as substrate in presence of 33P-ATP by ProQinase assay relative to control
[12] = tested on: Epidermal growth factor receptor (Homo sapiens), P00533 [L858R,T790M]; assay: Inhibition of human EGFR T790M/L858R mutant assessed as residual activity at 1 uM using PolyEY as substrate in presence of 33P-ATP by ProQinase assay relative to control
[13] = target: Ephrin type-A receptor 8 (Homo sapiens) (UniProt P29322); assay: Inhibition of human EPHA8 assessed as residual activity at 1 uM using polyEy as substrate in presence of 33P-ATP by ProQinase assay relative to control
[14] = target: Cyclin-Y/Cyclin-dependent kinase 16 (Homo sapiens) (UniProt Q00536+Q8ND76); assay: Inhibition of human PCTAIRE1/CyclinY assessed as residual activity at 1 uM using RBER-GSK3 as substrate in presence of 33P-ATP by ProQinase assay relative to control; format: protein-complex assay
[15] = target: Platelet-derived growth factor receptor alpha (Homo sapiens) (UniProt P16234); assay: Inhibition of human PDGFRalpha assessed as residual activity at 1 uM using Poly(Ala,Glu,Lys,Tyr)6:2:5:1 as substrate in presence of 33P-ATP by ProQinase assay relative to control
[16] = target: Serine/threonine-protein kinase N1 (Homo sapiens) (UniProt Q16512); assay: Inhibition of human PRK1 assessed as residual activity at 1 uM using RBER-CHKtide as substrate in presence of 33P-ATP by ProQinase assay relative to control
[17] = target: Proto-oncogene tyrosine-protein kinase ROS (Homo sapiens) (UniProt P08922); assay: Inhibition of human ROS assessed as residual activity at 1 uM using poly(Ala,Glu,Lys,Tyr)6:2:5:1 as substrate in presence of 33P-ATP by ProQinase assay relative to control
[18] = target: NUAK family SNF1-like kinase 2 (Homo sapiens) (UniProt Q9H093); assay: Inhibition of human SNARK assessed as residual activity at 1 uM using histone H2B as substrate in presence of 33P-ATP by ProQinase assay relative to control
[19] = target: T1, Serine/threonine-protein kinase TAO3 (Homo sapiens) (UniProt Q9H2K8); assay: Inhibition of human TAOK3 assessed as residual activity at 1 uM using 3xChocktide-PKC(19-31) as substrate in presence of 33P-ATP by ProQinase assay relative to control
T1 sequence (whole entry): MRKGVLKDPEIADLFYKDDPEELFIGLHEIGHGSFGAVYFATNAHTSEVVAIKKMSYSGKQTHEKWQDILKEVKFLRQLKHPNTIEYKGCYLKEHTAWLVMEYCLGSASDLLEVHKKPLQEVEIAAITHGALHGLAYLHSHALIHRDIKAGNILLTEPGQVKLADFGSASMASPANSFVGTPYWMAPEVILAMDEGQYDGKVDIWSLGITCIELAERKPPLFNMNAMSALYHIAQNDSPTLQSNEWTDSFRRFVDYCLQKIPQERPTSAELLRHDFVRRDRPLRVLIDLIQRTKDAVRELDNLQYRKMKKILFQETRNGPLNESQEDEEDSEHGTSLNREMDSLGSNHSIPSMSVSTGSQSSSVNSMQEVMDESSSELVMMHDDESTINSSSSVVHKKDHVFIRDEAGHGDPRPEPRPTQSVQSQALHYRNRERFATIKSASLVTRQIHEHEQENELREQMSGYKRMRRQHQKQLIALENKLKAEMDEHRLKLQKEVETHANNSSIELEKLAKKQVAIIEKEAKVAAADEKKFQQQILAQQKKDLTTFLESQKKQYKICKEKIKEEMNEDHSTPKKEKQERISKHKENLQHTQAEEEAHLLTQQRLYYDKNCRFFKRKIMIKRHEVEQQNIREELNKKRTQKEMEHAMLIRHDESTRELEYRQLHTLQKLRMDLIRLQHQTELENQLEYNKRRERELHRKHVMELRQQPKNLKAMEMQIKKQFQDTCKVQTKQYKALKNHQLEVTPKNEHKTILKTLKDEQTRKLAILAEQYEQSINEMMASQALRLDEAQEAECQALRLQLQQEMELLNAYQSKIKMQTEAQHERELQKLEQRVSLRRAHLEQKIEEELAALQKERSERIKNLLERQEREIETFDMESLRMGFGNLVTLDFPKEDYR

[20] = target: MAP kinase p38 (Homo sapiens) (UniProt O15264+Q15759+Q16539+P53778); assay: Inhibition of p38-MAPK in human HeLa cells assessed as reduction in HSP27 phosphorylation at Ser82 level at 50 nM incubated for 2 hrs in the presence of anisomycin stimulation for 40 mins by western blot analysis; format: cell-based

Chain of Calcium/calmodulin-dependent protein kinase kinase 1 (Homo sapiens) (Q8N5S9 whole entry, looked up): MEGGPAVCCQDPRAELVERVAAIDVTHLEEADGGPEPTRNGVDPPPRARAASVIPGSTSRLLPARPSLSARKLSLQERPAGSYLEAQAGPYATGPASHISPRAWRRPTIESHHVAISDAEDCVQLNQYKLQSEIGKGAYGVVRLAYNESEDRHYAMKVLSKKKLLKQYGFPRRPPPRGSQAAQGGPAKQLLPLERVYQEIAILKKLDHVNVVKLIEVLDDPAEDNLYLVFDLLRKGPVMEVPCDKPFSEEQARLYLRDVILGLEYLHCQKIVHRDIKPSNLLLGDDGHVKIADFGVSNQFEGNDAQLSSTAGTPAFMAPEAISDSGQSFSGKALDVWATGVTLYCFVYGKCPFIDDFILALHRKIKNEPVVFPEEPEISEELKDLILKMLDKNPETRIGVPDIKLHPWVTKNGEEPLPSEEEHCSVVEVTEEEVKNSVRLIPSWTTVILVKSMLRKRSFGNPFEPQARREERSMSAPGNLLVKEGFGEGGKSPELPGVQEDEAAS
Chain of Ephrin type-A receptor 8 (Homo sapiens) (P29322 whole entry): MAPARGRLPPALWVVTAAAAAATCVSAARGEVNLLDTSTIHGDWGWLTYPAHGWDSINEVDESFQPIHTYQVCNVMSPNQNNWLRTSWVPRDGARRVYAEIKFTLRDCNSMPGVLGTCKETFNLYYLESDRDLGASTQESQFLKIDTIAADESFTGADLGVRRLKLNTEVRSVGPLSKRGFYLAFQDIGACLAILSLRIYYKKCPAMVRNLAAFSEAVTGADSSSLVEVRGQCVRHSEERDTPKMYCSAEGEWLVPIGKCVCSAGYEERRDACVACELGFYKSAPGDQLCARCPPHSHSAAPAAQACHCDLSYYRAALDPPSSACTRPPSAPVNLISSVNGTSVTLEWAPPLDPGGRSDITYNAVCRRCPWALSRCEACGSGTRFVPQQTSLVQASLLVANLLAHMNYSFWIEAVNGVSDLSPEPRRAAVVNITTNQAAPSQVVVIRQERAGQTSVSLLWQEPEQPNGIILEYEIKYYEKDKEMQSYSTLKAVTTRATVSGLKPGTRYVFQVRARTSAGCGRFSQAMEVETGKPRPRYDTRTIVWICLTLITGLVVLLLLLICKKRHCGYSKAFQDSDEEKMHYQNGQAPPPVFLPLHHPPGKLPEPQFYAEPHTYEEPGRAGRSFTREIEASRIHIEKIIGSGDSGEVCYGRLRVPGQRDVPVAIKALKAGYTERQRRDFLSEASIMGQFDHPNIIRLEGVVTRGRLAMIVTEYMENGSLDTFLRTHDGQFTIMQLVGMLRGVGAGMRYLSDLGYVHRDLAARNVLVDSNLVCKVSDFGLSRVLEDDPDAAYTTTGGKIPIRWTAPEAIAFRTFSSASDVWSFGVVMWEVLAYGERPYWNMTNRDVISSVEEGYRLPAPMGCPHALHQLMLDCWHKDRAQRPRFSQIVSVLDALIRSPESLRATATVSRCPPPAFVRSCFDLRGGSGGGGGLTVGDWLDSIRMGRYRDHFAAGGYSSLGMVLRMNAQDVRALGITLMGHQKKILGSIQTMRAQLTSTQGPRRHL
Chain of Proto-oncogene tyrosine-protein kinase ROS (Homo sapiens) (P08922 whole entry): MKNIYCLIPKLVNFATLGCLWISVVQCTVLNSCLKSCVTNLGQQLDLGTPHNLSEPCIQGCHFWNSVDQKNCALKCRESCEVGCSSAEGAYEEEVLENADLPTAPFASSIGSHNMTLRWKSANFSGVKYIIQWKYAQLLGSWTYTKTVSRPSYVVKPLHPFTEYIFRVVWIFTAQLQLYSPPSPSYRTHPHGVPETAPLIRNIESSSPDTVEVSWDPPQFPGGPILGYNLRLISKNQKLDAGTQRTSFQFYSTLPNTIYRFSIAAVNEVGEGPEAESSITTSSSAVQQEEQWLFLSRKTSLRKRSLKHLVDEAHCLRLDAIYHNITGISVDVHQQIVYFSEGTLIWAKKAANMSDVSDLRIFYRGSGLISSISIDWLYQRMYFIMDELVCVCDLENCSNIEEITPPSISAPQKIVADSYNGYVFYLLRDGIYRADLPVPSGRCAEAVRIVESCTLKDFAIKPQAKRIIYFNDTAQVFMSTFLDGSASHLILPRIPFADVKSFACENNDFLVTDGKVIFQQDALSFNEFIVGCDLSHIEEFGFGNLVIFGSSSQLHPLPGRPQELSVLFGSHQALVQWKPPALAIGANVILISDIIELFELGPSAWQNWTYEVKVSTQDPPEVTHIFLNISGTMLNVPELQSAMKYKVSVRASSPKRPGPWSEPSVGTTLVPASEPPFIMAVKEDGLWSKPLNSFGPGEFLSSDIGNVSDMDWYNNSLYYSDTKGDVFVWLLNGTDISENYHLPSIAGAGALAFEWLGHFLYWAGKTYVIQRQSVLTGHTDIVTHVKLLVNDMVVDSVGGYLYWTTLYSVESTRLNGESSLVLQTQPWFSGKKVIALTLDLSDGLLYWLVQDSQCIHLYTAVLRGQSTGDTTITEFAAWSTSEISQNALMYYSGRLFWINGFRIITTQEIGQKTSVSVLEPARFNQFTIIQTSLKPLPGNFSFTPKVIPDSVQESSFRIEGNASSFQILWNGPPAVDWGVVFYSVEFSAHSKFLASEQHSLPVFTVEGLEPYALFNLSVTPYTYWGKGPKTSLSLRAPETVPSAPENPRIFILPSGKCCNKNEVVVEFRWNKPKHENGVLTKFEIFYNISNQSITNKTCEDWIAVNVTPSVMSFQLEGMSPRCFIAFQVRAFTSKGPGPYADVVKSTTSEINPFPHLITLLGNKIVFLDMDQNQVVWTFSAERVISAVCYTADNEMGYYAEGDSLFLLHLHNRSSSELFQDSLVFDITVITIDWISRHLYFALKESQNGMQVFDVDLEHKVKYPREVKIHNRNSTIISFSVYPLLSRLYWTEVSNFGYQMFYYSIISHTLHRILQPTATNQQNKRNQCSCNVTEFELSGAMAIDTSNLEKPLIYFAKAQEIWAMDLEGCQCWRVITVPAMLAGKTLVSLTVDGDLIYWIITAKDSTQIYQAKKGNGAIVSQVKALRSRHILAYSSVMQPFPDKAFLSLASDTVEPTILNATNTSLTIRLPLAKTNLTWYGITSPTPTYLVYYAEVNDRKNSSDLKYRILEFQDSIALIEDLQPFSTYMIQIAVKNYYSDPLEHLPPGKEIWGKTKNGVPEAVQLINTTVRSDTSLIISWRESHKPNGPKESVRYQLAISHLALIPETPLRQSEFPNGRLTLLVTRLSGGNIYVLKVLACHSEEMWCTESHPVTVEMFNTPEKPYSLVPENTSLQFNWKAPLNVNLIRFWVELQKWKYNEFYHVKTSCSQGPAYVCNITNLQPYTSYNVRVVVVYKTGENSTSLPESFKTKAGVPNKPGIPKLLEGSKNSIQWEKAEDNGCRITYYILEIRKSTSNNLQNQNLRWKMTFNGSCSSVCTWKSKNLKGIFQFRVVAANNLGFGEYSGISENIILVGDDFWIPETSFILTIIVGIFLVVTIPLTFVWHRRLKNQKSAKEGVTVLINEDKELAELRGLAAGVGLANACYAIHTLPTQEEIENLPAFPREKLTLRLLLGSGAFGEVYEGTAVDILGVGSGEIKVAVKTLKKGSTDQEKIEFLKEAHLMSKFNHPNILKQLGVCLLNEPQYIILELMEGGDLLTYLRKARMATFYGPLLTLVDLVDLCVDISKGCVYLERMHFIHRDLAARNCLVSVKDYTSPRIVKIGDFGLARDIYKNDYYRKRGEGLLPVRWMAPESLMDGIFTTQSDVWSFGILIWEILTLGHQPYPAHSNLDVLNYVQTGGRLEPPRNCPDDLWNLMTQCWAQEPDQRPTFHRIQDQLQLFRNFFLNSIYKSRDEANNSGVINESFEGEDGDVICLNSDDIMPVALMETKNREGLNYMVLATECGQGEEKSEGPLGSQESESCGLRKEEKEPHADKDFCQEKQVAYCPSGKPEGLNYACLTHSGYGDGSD
Chain of Bone morphogenetic protein receptor type-2 (Homo sapiens) (Q13873 whole entry): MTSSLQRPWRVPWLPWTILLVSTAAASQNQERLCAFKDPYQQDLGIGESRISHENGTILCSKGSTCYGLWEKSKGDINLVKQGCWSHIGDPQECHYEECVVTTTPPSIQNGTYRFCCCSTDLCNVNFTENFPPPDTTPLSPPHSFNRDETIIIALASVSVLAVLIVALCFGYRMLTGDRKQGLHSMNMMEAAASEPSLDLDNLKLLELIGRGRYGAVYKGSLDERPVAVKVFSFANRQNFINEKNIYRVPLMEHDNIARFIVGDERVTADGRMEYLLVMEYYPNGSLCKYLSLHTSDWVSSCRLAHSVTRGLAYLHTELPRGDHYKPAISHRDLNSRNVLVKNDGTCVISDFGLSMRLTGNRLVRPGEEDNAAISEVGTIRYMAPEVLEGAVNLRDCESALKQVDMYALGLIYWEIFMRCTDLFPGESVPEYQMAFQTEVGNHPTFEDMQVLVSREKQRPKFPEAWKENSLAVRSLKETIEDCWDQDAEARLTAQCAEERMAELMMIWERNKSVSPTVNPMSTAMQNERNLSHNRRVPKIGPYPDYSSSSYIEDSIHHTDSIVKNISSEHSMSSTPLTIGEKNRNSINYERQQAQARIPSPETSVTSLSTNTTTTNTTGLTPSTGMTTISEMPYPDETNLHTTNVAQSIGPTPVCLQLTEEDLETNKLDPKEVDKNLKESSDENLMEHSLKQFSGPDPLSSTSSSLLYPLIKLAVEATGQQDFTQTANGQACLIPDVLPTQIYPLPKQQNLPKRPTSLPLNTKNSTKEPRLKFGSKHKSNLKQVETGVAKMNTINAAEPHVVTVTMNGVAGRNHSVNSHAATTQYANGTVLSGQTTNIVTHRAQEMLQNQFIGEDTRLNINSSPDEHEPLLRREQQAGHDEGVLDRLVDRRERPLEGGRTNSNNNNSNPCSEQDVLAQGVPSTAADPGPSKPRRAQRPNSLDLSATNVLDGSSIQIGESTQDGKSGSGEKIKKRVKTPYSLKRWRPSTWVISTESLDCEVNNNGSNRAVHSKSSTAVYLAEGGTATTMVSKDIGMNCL

O=C1c2ccc(Nc3ccc(F)cc3F)cc2CCc2ccc(OC[C@H](O)CO)cc21 [Skepinone-L] showed an Activity [1] of 100%, an Activity [2] of 100% and an Activity [3] of 100%. For the same compound, the Activity [4] was 100%, the Activity [5] was 100% and the Activity [6] was 100%. For the same compound, the Activity [7] was 100%, the Activity [8] was 97% and the Activity [9] was 83%. The Activity [10] was 92%, the Activity [11] was 93% and the Activity [12] was 93%. For the same compound, the Activity [13] was 95%, the Activity [14] was 79% and the Activity [15] was 91%. It also gave an Activity [16] of 92%, an Activity [17] of 102% and an Activity [18] of 115%. The Activity [19] was 102% and the inhibition [20] was “Active”.

Source: ChEMBL document CHEMBL5696441 (Nat Chem Biol, 2011)
